7 molecules from BindingDB's records for doi:10.1021/jm010282t (Tohoku Pharmaceutical University, 2001) can be followed below.

The experiment deals with T1, Aromatase (Homo sapiens, UniProt P11511).
T1 sequence (P11511 whole entry): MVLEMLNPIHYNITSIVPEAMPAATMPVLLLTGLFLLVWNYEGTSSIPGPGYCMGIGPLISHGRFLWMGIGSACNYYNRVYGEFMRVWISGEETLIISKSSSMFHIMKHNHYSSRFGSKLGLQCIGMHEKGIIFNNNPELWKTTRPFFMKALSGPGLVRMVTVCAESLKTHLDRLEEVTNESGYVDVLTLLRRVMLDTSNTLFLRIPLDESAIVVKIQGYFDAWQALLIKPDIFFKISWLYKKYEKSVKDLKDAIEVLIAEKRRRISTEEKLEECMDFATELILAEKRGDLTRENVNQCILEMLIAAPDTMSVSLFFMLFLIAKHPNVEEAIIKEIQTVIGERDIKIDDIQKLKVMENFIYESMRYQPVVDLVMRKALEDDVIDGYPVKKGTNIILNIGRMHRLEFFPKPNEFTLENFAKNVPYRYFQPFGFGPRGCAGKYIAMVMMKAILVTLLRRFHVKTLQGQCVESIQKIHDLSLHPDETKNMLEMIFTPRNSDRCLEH
Put plainly: Aromatase Assay. The conditions noted are these: pH 7.5; 37 °C.
Description: The enzyme activity was assayed by measuring the 3H-labeled H2O formed from [1beta-3H] Androstenedione during aromatization. After incubation, the reaction was terminated by CHCl3 extraction and centrifugation. Aliquots of the water phase were assayed for the presence of 3H2O by counting using a liquid scintillation spectrometer.
In general, IC50 refers to the midpoint of a concentration-inhibition curve. Broadly, the Ki is the dissociation constant of the complex between target and ligand, obtained from inhibition or displacement. A lower Ki goes with higher affinity. `C[C@]12CCC3C(CC=C4CCCC[C@@]43CO)C1CCC2=O` (stereo partly drawn) [(2S,15S)-2-(hydroxymethyl)-15-methyltetracyclo[8.7.0.0^{2,7}.0^{11,15}]heptadec-7-en-14-one] registered an IC50 of 6900 nM and a Ki of 1000 nM.

The molecule `C[C@]12CCCCC1=CCC1C2CC[C@]2(C)C(=O)CCC12` (stereo partly drawn) [(2R,15S)-2,15-dimethyltetracyclo[8.7.0.0^{2,7}.0^{11,15}]heptadec-7-en-14-one] returned an IC50 of 660 nM and a Ki of 120 nM.

Regarding `C[C@]12CCC3C(CCC4=CCCC[C@@]43CO)C1CCC2=O` (stereo partly drawn) [(2S,15S)-2-(hydroxymethyl)-15-methyltetracyclo[8.7.0.0^{2,7}.0^{11,15}]heptadec-6-en-14-one], the IC50 was determined as 49 nM and the Ki worked out at 5.8 nM.

`C[C@]12CCC3C(C[C@H](O)C4=CCCC[C@@]43CO)C1CCC2=O` (stereo partly drawn) [(2S,8S,15S)-8-hydroxy-2-(hydroxymethyl)-15-methyltetracyclo[8.7.0.0^{2,7}.0^{11,15}]heptadec-6-en-14-one] returned an IC50 of 1400 nM and a Ki of 250 nM.

The molecule `CC(=O)O[C@@H]1CCC[C@@]2(CO)C1=CCC1C2CC[C@]2(C)C(=O)CCC12` (stereo partly drawn) [(2S,6R,15S)-2-(hydroxymethyl)-15-methyl-14-oxotetracyclo[8.7.0.0^{2,7}.0^{11,15}]heptadec-7-en-6-yl acetate] had an IC50 of 11000 nM.

For the molecule `C[C@]12CCC3C(C[C@@H](O)C4=CCCC[C@@]43CO)C1CCC2=O` (stereo partly drawn) [6beta,19-dihydroxyandrost-4-en-17-one], the IC50 came to 940 nM and the affinity, expressed as Ki, was 110 nM.

For the molecule `CO[C@H]1CCC[C@@]2(CO)C1=CCC1C2CC[C@]2(C)C(=O)CCC12` (stereo partly drawn) [4beta-Methoxy-19-hydroxyandrost-5-en-17-one], half-maximal inhibition (IC50) required 150000 nM.
